Here are results for six compounds from patent US5348941A, “Stabilizers for fibroblast growth factors” (Merck & Co., Inc., priority 1992, dated 1994).

One data set deals with acidic FGF (aFGF) (Homo sapiens, UniProt P05230). Description: biochemical. Particulars: for stabilization of aFGF against heat-induced aggregation: 0.5X and 10X ligand, FIGS. 6-8; for Approx. Molar Ratio (ligand to aFGF at 50% inhibition of aggregation): Table 1. From the text:
Stabilization of aFGF can be determined by several independent methods including turbidity measurements, spectroscopic techniques, maintenance of protein mass, mitogenic activity and copper catalyzed oxidation. Since acidic fibroblast growth factor is unstable at physiological temperatures (undergoing large structural changes, including aggregation, which results in a loss of mitogenic and wound healing activity), human aFGF stability can be monitored by evaluating the turbidity of the pharmaceutical composition by following the kinetics of temperature induced aggregation of unfolded protein.
The kinetics of protein aggregation (stabilization) are monitored by the degree of light scattering at about OD350 nm using a Perkin Elmer Lambda 6 UV-visible spectrophotometer equipped with a six-cuvette holder. Temperature is controlled by circulating a water/ethylene glycol solution through the cell holder. About 0.9 ml of a PBS solution (6 mM sodium phosphate, 120 mM NaCl, pH 7.2) was placed into a cuvette and incubated at the appropriate temperature within the spectrophotometer. Once equilibrated, 100 μl of a 1 mg/ml aFGF solution containing the appropriate amount of ligand (stabilizer) is added to the cuvette and mixed manually by inversion. The change in optical density at 350 nm over time is continuously monitored. A dead time of 30s was present due to the mixing of the six samples in each experiment.
To examine the interactions between aFGF and heparin, a spectrophotometric turbidity assay was developed. This technique monitors the structural stability of aFGF by following the kinetics of temperature induced aggregation of unfolded protein by measurement of the degree of light scattering (turbidity) at 350 nm. The kinetics of protein aggregation were monitored by the degree of light scattering at 350 nm using a Perkin Elmer Lambda 6 UV-visible spectrophotometer equipped with a six-cuvette holder. Temperature was controlled by circulating a water/ethylene glycol solution through the cell holder. A PBS solution, 0.9 ml, (6 mM phosphate, 120 mM NaCl pH 7.2) was placed into a cuvette and incubated at the appropriate temperature within the spectrophotometer. Once equilibrated, 100 μl of a 1 mg/ml aFGF solution containing the appropriate amount of ligand was added to the cuvette and mixed manually by inversion. The change in optical density at 350 nm over time was continuously monitored. A dead time of 30s was present due to the mixing of the six samples in each experiment.
Samples contained 100 μg/ml aFGF in a PBS buffer at pH 7.2 with the indicated ratio of heparin to aFGF (wt:wt).
Samples contained 100 μg/ml protein in a PBS buffer, pH 7.2 with (a) no heparin, (b) 1.5 μg/ml, (c) 3 μg/ml, (d) 5 μg/ml, (e) 10 μg/ml and (f) 50 μg/ml heparin. Only representative data points are shown for clarity. […] Using the initial linear portion of the slope of turbidity vs. time plots as a measure of the rate of aggregation, the effect of polyanion concentration can be quantitatively characterized. The Y-axis represents the maximum rate of turbidity formation (ΔOD350 nm/min) normalized to sample (a) containing no heparin. The curve is drawn through data points for clarity only. The IC50 is the concentration of ligand at which the rate of aggregation is 50% of the control sample.

Data set [1] deals with genetically diabetic C57GBL/Ks- db+/db^+ female mice. Description: In vivo wound healing model (single 2 cm^2 full thickness wound). Particulars: with aFGF. Also on record: species or system mouse. From the text:
The in vivo animal wound healing model employs genetically diabetic c57GBL/Ks- db+/db+ female mice. The assay follows that described by Marsella et al., Wounds: A Compendium of Clinical Research and Practice, 2, (4) July/August 1990, p. 135-147, except that a single 2 cm^2 full thickness wound is used instead of the two 6 mm biopsy wounds described by Marsella. Another difference is that the wounds are covered with a polyurethane dressing. Addic FGF is applied to wounds on days 0, 3 and 7. Matching placebo formulations are used in a second group of animals. Dressings are changed every three to four days, at which time wound perimeters are traced for assessment of healing. Comparison of healing rate va. a placebo control is made and evaluated for statistical significance at the 90% healed stage.
Human aFGF as described above was combined with various stabilizers to evaluate wound healing activity of the stabilized aFGF. The in vivo animal wound healing model employs genetically diabetic C57GBL/Ks- db+/db^+ female mice (Jackson Laboratory). The assay follows that described by Marsella et. al., Wounds: A Compendium of Clinical Research and Practice, 2, (4) July/August 1990, p. […] Comparison of healing rate vs. a placebo control is made and evaluated for statistical significance at the 90% healed stage. […]

In the next data set the test system is plasma. The data set is described as follows: Anticoagulant activity: clotting time (PT / aPTT assay) relative to heparin. It counts as biochemical. Particulars: equal weight of heparin, no aFGF present. The protocol: Clotting times are monitored by either a one-stage plasma prothrombin time assay (PT assay) or an activated partial thromboplastin time assay (aPTT) using an automated optical detection system (coag-a-Mate®-XC) by General Diagnostics. Clotting times are measured in the presence of varying amounts of heparin (0-50 μg heparin/ml plasma) to generate a standard curve and dotting times of other compounds (at equal wt. amounts) are obtained relative to these standardized values.
^(c) Anticoagulant activity is expressed as a fraction of activity
observed with an equal weight of heparin (+ less than 1/10; ++ 1/10 to
1/2; +++ heparin). No aFGF is present during these measurements.
The anticoagulant properties of heparin are well established, so it was of interest to determine the relative anticoagulant properties of the ligands of this study. The anticoagulant effect of these molecules was measured using a dotting time assay (see methods). Clotting times were monitored by either a one-stage plasma prothrombin time assay (PT assay) or an activated partial thromboplastin time assay (aPTT) using an automated optical detection system (coag-a-Mate*-XC) by General Diagnostics. […]

The subject of data set [2] is BALB/c 3T3 A31 fibroblasts. The data set is described as follows: Fibroblast mitogenic assay ([3H]-thymidine incorporation into DNA). The class given is cell-based. Particulars: presence of heparin. On the technique in general: Uptake of a labelled nucleoside into DNA is a usual measure of proliferation.
[3] abbreviates: 40° C., 100 μg/ml aFGF, PBS pH 7.2.

acidic FGF (aFGF), sequence (P05230 16-155 limits assumed): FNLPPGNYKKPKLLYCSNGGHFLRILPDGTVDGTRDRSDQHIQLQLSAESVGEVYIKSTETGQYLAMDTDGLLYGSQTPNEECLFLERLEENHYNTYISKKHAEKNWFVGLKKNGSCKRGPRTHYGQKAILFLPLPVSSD

Take “low molecular weight heparin [Low MW heparin, reference compound]”: at acidic FGF (aFGF) (setting [3]), the “IC50: concentration of ligand at which the rate of heat-induced aggregation of aFGF is 50% of the sample without ligand” value is 3 µg/mL. Further, at acidic FGF (aFGF) (40° C.), the “stabilization of aFGF against heat-induced aggregation” value (shortened to “stabilization of aFGF”) is recorded as “dramatically stabilize aFGF from heat-induced aggregation” and the “Approx. Molar Ratio (ligand to aFGF at 50% inhibition of aggregation)” value was found to be 0.10.
For `O=S(=O)(O)OC1C(OS(=O)(=O)O)C(OS(=O)(=O)O)C(OS(=O)(=O)O)C(OS(=O)(=O)O)C1OS(=O)(=O)O` (centres unmarked) [Inositol hexasulfate, inositol hexasulfate], the “wound healing efficacy” value in data set [1] was “as efficacious as heparin in stimulating”. On acidic FGF (aFGF) (40° C.), the “number of ligand molecules per aFGF (molar ratio) required for stabilization” value is listed as “only one or a few ligands per aFGF molecule”, the “stabilization of aFGF” value is “stabilize aFGF against heat-induced aggregation” and the “Approx. Molar Ratio (ligand to aFGF at 50% inhibition of aggregation)” value was determined as 0.6. Besides, on acidic FGF (aFGF) (40° C., 100 μg/ml aFGF, PBS pH 7.2, read-out: IC50: concentration of ligand at which the rate of heat-induced aggregation of aFGF is 50% of the sample without ligand (converted)), the IC50 is 4.54 µM.
dextran sulfate: at acidic FGF (aFGF) (40° C.), the “number of ligand molecules per aFGF (molar ratio) required for stabilization” value is “substantially below one”, the “stabilization of aFGF” value is listed as “dramatically stabilize aFGF from heat-induced aggregation” and the “Approx. Molar Ratio (ligand to aFGF at 50% inhibition of aggregation)” value is on record as 0.06. Also, the “IC50: concentration of ligand at which the rate of heat-induced aggregation of aFGF is 50% of the sample without ligand” value on acidic FGF (aFGF) (setting [3]) was found to be 3 µg/mL.
In the case of heparin [reference compound], the “Anticoagulant Activity of Ligand (% Heparin by Wt)” value with plasma is “+ ++”. Besides, on acidic FGF (aFGF) (40° C.), the “number of ligand molecules per aFGF (molar ratio) required for stabilization” value is on record as “substantially below one” and the “Approx. Molar Ratio (ligand to aFGF at 50% inhibition of aggregation)” value came to 0.03. Also, the “heparin concentration down to which no detectable aggregation of aFGF was observed” value at acidic FGF (aFGF) (40° C., 100 μg/ml aFGF (1:10 weight ratio of heparin to aFGF)) is reported as “approximately 10 μg/ml”. For the same compound, the “IC50: concentration of ligand at which the rate of heat-induced aggregation of aFGF is 50% of the sample without ligand” value at acidic FGF (aFGF) (setting [3]) was 2 µg/mL. Also, the “aggregation of aFGF” value at acidic FGF (aFGF) (55° C., 25 minutes, 3-fold excess heparin by weight) was “no aggregation observed after 25 minutes at 55 °C”.
For the compound `O=P(O)(O)OP(=O)(O)OP(=O)(O)OP(=O)(O)O` [Tetrapolyphosphate], the “mitogenic activity of aFGF” value in data set [2] was “showed activity when assayed in the presence of heparin”. Moreover, on acidic FGF (aFGF) (40° C.), the “number of ligand molecules per aFGF (molar ratio) required for stabilization” value is listed as “only one or a few ligands per aFGF molecule” and the “Approx. Molar Ratio (ligand to aFGF at 50% inhibition of aggregation)” value was found to be 1.2. Further, at acidic FGF (aFGF) (setting [3]), the “IC50: concentration of ligand at which the rate of heat-induced aggregation of aFGF is 50% of the sample without ligand” value came to 3 µg/mL.
As for sulfated β-cyclodextrin, the “wound healing efficacy” value in data set [1] was “as efficacious as heparin in stimulating”.
